{
  "source": "patent US8852928B2",
  "about": "“LexA-based chemical-inducible gene expression system for use in transgenic animals” (Temasek Life Sciences Laboratory Limited, priority 2007, dated 2014)",
  "molecular_target": "T1, LexPR transactivator (Homo sapiens, UniProt P06401)",
  "T1 construct": "expressed in transfected cells; host or cells: germline-transgenic zebrafish (Danio rerio) carrying the Ds transposon driver cassette pDs(krt8:LPR-LOP:G4) or derivatives",
  "T1 sequence (P06401 640-914)": "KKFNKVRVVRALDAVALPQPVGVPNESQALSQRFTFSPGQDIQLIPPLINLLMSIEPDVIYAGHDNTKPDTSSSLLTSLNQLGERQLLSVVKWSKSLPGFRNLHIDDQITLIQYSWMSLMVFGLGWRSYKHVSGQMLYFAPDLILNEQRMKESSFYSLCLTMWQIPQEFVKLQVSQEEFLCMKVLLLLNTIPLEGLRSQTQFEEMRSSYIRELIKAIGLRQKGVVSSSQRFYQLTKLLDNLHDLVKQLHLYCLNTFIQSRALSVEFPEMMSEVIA",
  "assay": "Inducible expression of EGFP-KrasV12 in transgenic zebrafish",
  "format": "in vivo",
  "conditions": "10 μM at 10 hpf onwards",
  "text": "Transgenic zebrafish line harboring insertion of the binary driver construct Ds(krt8:LPR-LOP:EGFP-Kras^V12) containing EGFP-Kras^V12 under control of the LexOP, F2 (FIG. 12a-12e, FIG. 12g). FIG. 12a: 24 hpf, no induction. […] FIG. 12f: Transgenic fish harboring the unmodified driver-reporter construct pDs(krt8:LPR-LOP:G4) containing EGFP gene under control of the LexOP.",
  "data": [
    {"smiles": "CC#C[C@]1(O)CC[C@H]2[C@@H]3CCC4=CC(=O)CCC4=C3[C@@H](c3ccc(N(C)C)cc3)C[C@@]21C", "note": "[mifepristone]", "values": [
      {"measurement": "Effect of induced EGFP-KrasV12 expression on F2 embryos", "result": "embryo development was severely affected"}
    ]}
  ]
}
